Experimental data from patent US20050282911A1, “Memantine for the prevention or reduction of suicidality and for treatment of major depression associated with suicidality” (priority 2003, published 2005).

Tests used:
[1] = system: patients with major depressive disorder (MDD); assay: Open-label, flexible dose, 12-week study of memantine in major depressive disorder (MEM-MD-09): efficacy; format: in vivo, human; set-up: CGI-I mean score: scale not given here; conditions: for CGI-I mean score / Mean Change from Baseline in CGI-S / Mean Change from Baseline in HAM-D / Mean Change from Baseline in MADRS: ITT Population; for Mean Change from Baseline in CGI-S: baseline 4.3; for Mean Change from Baseline in HAM-D: baseline 30.0; for Mean Change from Baseline in MADRS: baseline 31.9
Excerpt: The present study was a single-center, open-label, flexible dose, 12-week study designed to provide a preliminary assessment of the efficacy and safety of memantine in patients with major depressive disorder (MDD). In order to assess the efficacy of treatment on depressive symptomatology, the primary efficacy assessment was the Montgomery Depression Rating Scale (MADRS). Secondary efficacy assessments included the Hamilton Depression Rating Scale (HAM-D), the Clinical Global Impressions—Severity Scale (CGI-S), the Clinical Global Impressions—Improvement Scale (CGI-I), the Patient Global Evaluation (PGE), and the Quality of Life Scale (QOL).
Study Design. The study was designed as a single-center, open-label, flexible dose 12-week study. Memantine was to be administered at 20 mg/day (10 mg b.i.d.) (titrated over a 4 week period), and, if warranted, up-titrated to a maximum of 40 mg/day (20 mg b.i.d.) (titrated in increments of 10 mg/day after Week 4).
Entrance Criteria. Criteria for enrollment were as follows: (i) male or female outpatients between 18 and 80 years of age at screening; (ii) diagnosis of MDD consistent with DSM-IV; (iii) Montgomery Asberg Depression Rating Scale (MADRS) score of 22 or greater; and CGI severity score of 4 or greater. None of the patients had attempted suicide or were diagnosed as being at risk for committing suicide.
Endpoints. The primary endpoint was improvement according to Montgomery Asberg Depression Rating Scale (MADRS). Secondary endpoints were improvements according to the Hamilton Depression Rating Scale (HAM-D), the Clinical Global Impressions-Severity Scale (CGI-S), the Clinical Global Impressions-Improvement Scale (CGI-I), Patient Global Evaluation (PGE), and Quality of Life Scale (QOL).
MADRS. MADRS is either self-administered (MADRS-S) or interviewer administered evaluation of symptoms of depression in adults. MADRS evaluates ten areas of depressive symptomatology: apparent sadness, reported sadness, inner tension, reduced sleep, reduced appetite, concentration difficulties, lassitude, inability to feel, pessimistic thoughts, and suicidal thoughts. Each area is rated on a seven-point scale (0-6).
MADRS was administered to each of the study participants at baseline, and weeks 1, 2, 3, 4, 6, 8, 10 and 12.
HAM-D. HAM-D criteria were assessed at weeks 1, 2, 4, 8 and 12. HAM-D is a 24-item scale that evaluates depressed mood, vegetative and cognitive symptoms of depression, and comorbid anxiety symptoms. It provides ratings on current DSM-IV symptoms of depression, with the exceptions of hypersomnia, increased appetite, and concentration/indecision. There are several ways of analyzing HAM-D. According to one analysis, the first 17-items are rated on either a 5-point (0-4) or a 3-point (0-2) scale. In general, the 5-point scale items use a rating of 0=absent; 1=doubtful to mild; 2=mild to moderate; 3=moderate to severe; 4=very severe. A rating of 4 is usually reserved for extreme symptoms. The 3-point scale items used a rating of 0=absent; 1=probable or mild; 2=definite. The second analysis uses the same scale to rate the first 21 items, and the third analysis uses the scale to rate all 24 items. All three analyses were used in the present study and used statistically in the results.
Response to medication (i.e., memantine) was defined as a reduction in the HAM-D 24 score of 50%, while remission was defined as a reduction in the HAM-D total score to 7 or less.
DSM-IV. DSM-IV diagnostic criteria were determined at week 1 and again at the end of the study. […]

[2] = cited from earlier work

Which results are given for `CC12CC3CC(C)(C1)CC(N)(C3)C2.Cl` [Memantine, 1-amino-3,5-dimethyladamantane hydrochloride]?
HAM-D ECDEU combination (cognitive disturbance factor) ([1]; 12 week period): improved; shift in severity ranking (CGI-S) ([1]; 12 week period, with the exception of one patient): improved to “mildly depressed” or to “not depressed”; HAM-D item 8, MADRS item 6 and DSM-IV criterion “h” (concentration, cognitive disturbance) ([1]; 12 week treatment period): improved; reduction in MADRS and HAM-D (17-, 21-, and 24-question versions) at endpoint ([1]; LOCF analyses, endpoint): approximately 18 points; CGI-I mean score ([1]; Week 1, LOCF): 2.7; Mean Change from Baseline in CGI-S ([1]; Week 1, LOCF): −0.5; Mean Change from Baseline in HAM-D ([1]; Week 1, LOCF): −6.1; Mean Change from Baseline in MADRS ([1]; Week 1, LOCF): −7.9; CGI-I mean score ([1]; Week 1, OC): 2.7; Mean Change from Baseline in CGI-S ([1]; Week 1, OC): −0.7; Mean Change from Baseline in HAM-D ([1]; Week 1, OC): −8.2; Mean Change from Baseline in MADRS ([1]; Week 1, OC): −10.5; CGI-I mean score ([1]; Week 2, LOCF): 2.8; Mean Change from Baseline in CGI-S ([1]; Week 2, LOCF): −0.6; Mean Change from Baseline in HAM-D ([1]; Week 2, LOCF): −11.8; Mean Change from Baseline in MADRS ([1]; Week 2, LOCF): −12.1; CGI-I mean score ([1]; Week 2, OC): 2.8; Mean Change from Baseline in CGI-S ([1]; Week 2, OC): −0.6; Mean Change from Baseline in HAM-D ([1]; Week 2, OC): −11.8; Mean Change from Baseline in MADRS ([1]; Week 2, OC): −12.1; CGI-I mean score ([1]; Week 3, LOCF): 2.4; Mean Change from Baseline in CGI-S ([1]; Week 3, LOCF): −0.9; Mean Change from Baseline in MADRS ([1]; Week 3, LOCF): −14.3; CGI-I mean score ([1]; Week 3, OC): 2.3; Mean Change from Baseline in CGI-S ([1]; Week 3, OC): −1.0; Mean Change from Baseline in MADRS ([1]; Week 3, OC): −14.7; CGI-I mean score ([1]; Week 4, LOCF): 2.3; Mean Change from Baseline in CGI-S ([1]; Week 4, LOCF): −1.3; Mean Change from Baseline in HAM-D ([1]; Week 4, LOCF): −16.8; Mean Change from Baseline in MADRS ([1]; Week 4, LOCF): −15.6; CGI-I mean score ([1]; Week 4, OC): 2.1; Mean Change from Baseline in CGI-S ([1]; Week 4, OC): −1.4; Mean Change from Baseline in HAM-D ([1]; Week 4, OC): −20.8; Mean Change from Baseline in MADRS ([1]; Week 4, OC): −17.0; CGI-I mean score ([1]; Week 6, LOCF): 2.4; Mean Change from Baseline in CGI-S ([1]; Week 6, LOCF): −1.3; Mean Change from Baseline in MADRS ([1]; Week 6, LOCF): −15.0; CGI-I mean score ([1]; Week 6, OC): 2.4; Mean Change from Baseline in CGI-S ([1]; Week 6, OC): −1.3; Mean Change from Baseline in MADRS ([1]; Week 6, OC): −15.0; CGI-I mean score ([1]; Week 8, LOCF): 2.0; Mean Change from Baseline in CGI-S ([1]; Week 8, LOCF): −1.5; Mean Change from Baseline in HAM-D ([1]; Week 8, LOCF): −16.8; Mean Change from Baseline in MADRS ([1]; Week 8, LOCF): −18.6; CGI-I mean score ([1]; Week 8, OC): 1.9; Mean Change from Baseline in CGI-S ([1]; Week 8, OC): −1.6; Mean Change from Baseline in HAM-D ([1]; Week 8, OC): −19.0; Mean Change from Baseline in MADRS ([1]; Week 8, OC): −20.4; CGI-I mean score ([1]; Week 10, LOCF): 2.1; Mean Change from Baseline in CGI-S ([1]; Week 10, LOCF): −1.8; Mean Change from Baseline in MADRS ([1]; Week 10, LOCF): −18.5; CGI-I mean score ([1]; Week 10, OC): 2.3; Mean Change from Baseline in CGI-S ([1]; Week 10, OC): −1.6; Mean Change from Baseline in MADRS ([1]; Week 10, OC): −16.7; CGI-I mean score ([1]; Week 12, LOCF): 2.1; Mean Change from Baseline in CGI-S ([1]; Week 12, LOCF): −1.5; Mean Change from Baseline in HAM-D ([1]; Week 12, LOCF): −17.8; Mean Change from Baseline in MADRS ([1]; Week 12, LOCF): −18.5; CGI-I mean score ([1]; Week 12, OC): 2.3; Mean Change from Baseline in CGI-S ([1]; Week 12, OC): −1.3; Mean Change from Baseline in HAM-D ([1]; Week 12, OC): −16.0; Mean Change from Baseline in MADRS ([1]; Week 12, OC): −16.7; overall impression of improvement (CGI-I) ([1]; after 12 weeks): overall impression of improvement as measured using CGI-I in all patients with the exception of one; DSM-IV checklist: degree of symptomology ([1]; all DSM-IV categories, end of study): reduction in the degree of symptomology in all DSM-IV categories; improvement on the primary and all secondary efficacy variables ([1]; baseline to Week 12, LOCF and OC approaches): Significant improvement; onset of therapeutic benefit in the treatment of MDD ([1]; eight patients with MDD, first assessment): 1 week; patients considered “Very Much Improved” or “Much Improved” as measured by the CGI-I ([1]; end of Week 8): 6 of 7; patients responded to treatment, as measured by the MADRS and the HAM-D ([1]; end of Week 8, responder defined as 50% improvement from baseline): 5 of the 7; DSM-IV checklist: categories of appetite and agitation/retardation ([1]; end of study): complete remission of symptoms in all patients; overall therapeutic response compared to citalopram and escitalopram ([1]; memantine 20-40 mg/day, comparison with prior study SCT-MD-01): larger magnitude and faster onset of overall therapeutic response; appetite items HAM-D 12, MADRS item 5 and DSM-IV item “c” ([1]; overall scores versus baseline): decrease from baseline; HAM-D items 1, 2, 3 and 7 ([1]; specific items chosen for analysis): positive change; score of item 3 of HAM-D (suicide) ([1]; throughout visit 8): steady improvement; patients meeting criteria as CGI-I responders ([1]; week 12): 62.5%; mean change from baseline to endpoint on the HAM-D ([1]; week 12, printed without sign): about 17.8; mean change from baseline to endpoint on the MADRS ([1]; week 12, printed without sign): about 18.5; HAM-D item combinations for melancholy, anxiety, psychomotor retardation and insomnia ([1]; week 12 from baseline): improvement; solubility in aqueous media [2]: highly soluble
